# Experimental data: patent publication US12377100B2 (GILEAD SCIENCES, INC., priority 2015, dated 2025)
# Tests used:
# IL12p40 = assay: PBMC cytokine profiling assay, IL12-p40 induction; assay type: cell-based; settings: human PBMCs, 24 hours incubation
# Outline: (§1)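 Cryopreserved healthy-donor human PBMCs (100k cells/well) were exposed for 24 h at 37 °C to a 10-point half-log compound series in 0.5% final DMSO. Secreted cytokines in the conditioned medium were quantified by MSD electrochemiluminescence, with TNFα samples diluted 1:9. AC50 was fitted by non-linear regression on percent activation normalised to plate controls.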
# [1] = MT-4 cytotoxicity assay, Cell Titer Glo, 5 days; assay type: cell-based, human; settings: human, MT-4 cells; MT-4, five days incubation, intracellular ATP; read-out: CC50 (MT4)
# From the text: (§2) To assess potential off-target toxicity of certain compounds disclosed herein, the in vitro cytotoxicity of those compounds was profiled using a panel of 5 cell lines with various tissue origins. Compound cytotoxicity was examined in hepatoma-derived Huh-7 and HepG2 cells, prostate carcinoma-derived PC-3 cells, lymphoma derived MT-4 cells and a normal diploid lung cell line MRC-5. HepG2 and PC-3 cells used were adapted to grow in glucose-free galactose-containing medium. These cells have a relatively higher sensitivity to inhibitors of mitochondrial oxidative phosphorylation compared to the same cells maintained in standard glucose-containing culture medium (Marroquin et al., Toxicol. Sci. 2007; 97 (2):539-47). Cell viability was determined by measuring intracellular ATP levels following five days of continuous incubation with test compounds.
# (§3) The human hepatoma Huh-7 cell line was obtained from ReBLikon GmbH (Mainz, Germany) {20879}. The MT-4 cell line (HTLV-1 transformed, human T lymphoblastoid cells) was obtained from the NIH AIDS Reagent program (Bathesda, MD). The human hepatoblastoma cell line HepG2, human prostate carcinoma cell line PC-3, and normal fetal lung derived MRC-5 cells were obtained from the American Type Culture Collection (ATCC, Manassas, VA).
# (§4) Huh-7 cells were maintained in Dulbecco's Modified Eagle Medium (DMEM) supplemented with 10% fetal bovine serum (FBS, Hyclone, Logan, UT), 1% non-essential amino acids (Gibco, Carlsbad, CA). PC-3 and HepG2 cells were adapted to grow in 0.2% galactose-containing, glucose-free Dulbecco's Modified Eagle Medium (DMEM) supplemented with 10% fetal bovine serum (FBS, Hyclone, Logan, UT), 1% non-essential amino acids (Gibco, Carlsbad, CA), 1% Pyruvate (Cellgro), 1% Glutamax (Invitrogen, Carlsbad, CA). Galactose-adapted cells were maintained in the same culture medium. MRC-5 cells were maintained in Eagle's Minimum Essential Medium (EMEM) supplemented with 10% fetal bovine serum (FBS, Hyclone, Logan, UT). MT-4 cells were maintained in RPMI-1640 supplemented with 10% fetal bovine serum (FBS, Hyclone, Logan, UT). All cell culture media were also supplemented with 100 Units/mL penicillin, 100 μg/mL streptomycin (Gibco).
# (§5) For the MT-4 cytotoxicity assay, 0.4 μL of serially diluted compounds were added to 40 μl of cell maintenance media in 384-well black, solid bottom plate using a Biomek FX workstation (Beckman Coulter). Two thousand cells in 35 μL were added to each well using a Biotek uFlow Workstation (Biotek). Each assay plate contained 10 μM Puromycin (final concentration) and 0.5% DMSO in RPMI-1640 as positive and negative controls, respectively. Assay plates were incubated for five days at 37° C. in an incubator set at 5% CO2 and 90% humidity. After five days, 22 μL of Cell Titer Glo reagent (Promega) was added to the assay plates with a Biotek uFlow Workstation. Plates were subsequently placed on a Perkin Elmer Envision Plate Reader for five minutes before the luminescence signal was read.
# (§6) CC50 values were defined as the compound concentration that caused a 50% decrease in luminescence signal, and were calculated by non-linear regression using Pipeline Pilot software by applying a four parameter fit equation (Accelrys, San Diego, CA). Individual CC50 values are listed as μM concentrations.
# TNFα = assay: PBMC cytokine profiling assay, TNFα induction; assay type: cell-based; settings: human PBMCs, 24 hours incubation
# Outline: as §1
# Huh-7 cells = assay: Cytotoxicity assay, Huh-7 cells, Cell Titer Glo, 5 days; assay type: cell-based, human; settings: Huh-7, five days incubation, intracellular ATP; read-out: CC50 HUH7 CTG 5D
# From the text: as §2, §3, §4
# (§7) Using a Biotek uFlow Workstation (Biotek, Winooski, VT), 1500 HepG2, 1500 PC-3, 500 Huh7 or 1500 MRC-5 cells in 90 μL of culture media were dispensed into each well of black polystyrene tissue culture-treated 384-well plates. Plated cells were incubated for 24 hours in an incubator at 37° C., 5% CO2 and 90% humidity. Compound serial dilutions were performed in 100% DMSO in 384-well polypropylene (high recovery) plates on a Biomek FX Workstation (Beckman Coulter, Fullerton, CA). After 3-fold serial dilutions, 0.4 μL of compounds were transferred into 384-well plates containing cells using a Velocity 11 system equipped with a Bravo 384-well pipettor. The DMSO concentration in the final assay plates was 0.44% (v/v). Cells were incubated with compound(s) for five days at 37° C. Puromycin (44 μM final concentration) and DMSO (0.44%, v/v) were used as a positive and negative controls, respectively
# (§8) At the end of the incubation period the cytotoxicity assay was performed as follows: Media from 384-well cell culture plates were aspirated with a Biotek EL405 plate-washer (Biotek) and cells were washed with 100 μL PBS once. Twenty microliters of Cell Titer Glo (Promega, Madison, WI) was added to each well of the plates with a Biotek uFlow liquid dispenser. Plates were incubated for 15 minutes at room temperature before luminescence was measured with a Perkin Elmer Envision Plate Reader (Perkin Elmer, Waltham, MA).
# as §6
# MRC-5 cells = assay: Cytotoxicity assay, MRC-5 cells, Cell Titer Glo, 5 days; assay type: cell-based, human; settings: MRC-5, five days incubation, intracellular ATP; read-out: CC50 MRC5 CTG 5D
# From the text: as §2, §3, §4, §7, §8, §6
# IFNα = assay: PBMC cytokine profiling assay, IFNα induction; assay type: cell-based; settings: human PBMCs, 24 hours incubation
# Outline: as §1
# [2] = Cytotoxicity assay, Huh-7 cells, Cell Titer Glo, 5 days; assay type: cell-based, human; settings: human, Huh-7 cells; Huh-7, five days incubation, intracellular ATP; read-out: CC50 HUH7 CTG 5D
# From the text: as §2, §3, §4, §7, §8, §6
# [3] = Cytotoxicity assay, galactose-adapted HepG2 cells, Cell Titer Glo, 5 days; assay type: cell-based; settings: human, galactose-adapted HepG2, five days incubation, intracellular ATP, read-out: CC50 GALHEPG2 CTG 5D
# From the text: as §2, §3, §4, §7, §8, §6
# [4] = Cytotoxicity assay, galactose-adapted PC-3 cells, Cell Titer Glo, 5 days; assay type: cell-based; settings: human, galactose-adapted PC-3, five days incubation, intracellular ATP, read-out: CC50 GALPC3 CTG 5D
# From the text: as §2, §3
# as §4, with “(Gibco). […]” for “(Gibco).”
# At the end of the incubation period the cytotoxicity assay was performed as follows: Media from 384-well cell culture plates were aspirated with a Biotek EL405 plate-washer (Biotek) and cells were washed with 100 μL PBS once. […] Plates were incubated for 15 minutes at room temperature before luminescence was measured with a Perkin Elmer Envision Plate Reader (Perkin Elmer, Waltham, MA). […]
# [5] = Cytotoxicity assay, MRC-5 cells, Cell Titer Glo, 5 days; assay type: cell-based, human; settings: human, MRC-5 cells; MRC-5, five days incubation, intracellular ATP; read-out: CC50 MRC5 CTG 5D
# From the text: as §2, §3, §4, §7, §8, §6
# MT-4 cells = assay: MT-4 cytotoxicity assay, Cell Titer Glo, 5 days; assay type: cell-based, human; settings: MT-4, five days incubation, intracellular ATP; read-out: CC50 (MT4)
# From the text: as §2, §3, §4, §5, §6
Structure (SMILES),AC50 (IL12p40) [µM],CC50 at 5 days [1] [µM],AC50 (TNFα) [µM],CC50 (Huh-7 cells) [µM],CC50 (MRC-5 cells) [µM],AC50 (IFNα) [µM],"AC50 (IL12p40; Homo sapiens, PBMC, 24 h) [µM]","AC50 (TNFα; Homo sapiens, PBMC, 24 h) [µM]",CC50 at 5 days [2] [µM],"AC50 (IFNα; Homo sapiens, PBMC, 24 h) [µM]",CC50 at 5 days [3] [µM],CC50 at 5 days [4] [µM],CC50 at 5 days [5] [µM],AC50 (IL12p40; PBMC) [µM],CC50 (MT-4 cells) [µM],AC50 (TNFα; PBMC) [µM],AC50 (IFNα; PBMC) [µM]
"CCCC[C@@](C)(Nc1nc(N)nc2cccnc12)C(C)O (single isomer, unassigned) [Example 97]",0.13,50,0.14,44.4,44.4,26,–,–,–,–,–,–,–,–,–,–,–
"CCCC[C@H](CO)Nc1nc(N)nc2cccnc12 [Example 15, (R)-2-((2-aminopyrido[3,2-d]pyrimidin-4-yl)amino)hexan-1-ol]",–,–,–,–,–,–,1.2,1.6,10.7,> 200,–,–,–,–,–,–,–
"CCCC[C@H](CNC(C)=O)Nc1nc(N)nc2cccnc12 [Example 51, (R)—N-(2-((2-aminopyrido[3,2-d]pyrimidin-4-yl)amino)hexyl)acetamide]",–,–,–,44.4,44.4,–,0.33,0.37,–,> 200,44.4,–,–,–,–,–,–
"CCCC[C@](C)(CO)Nc1nc(N)nc2cccnc12 [Example 59, (R)-2-((2-aminopyrido[3,2-d]pyrimidin-4-yl)amino)-2-methylhexan-1-ol]",–,31.4,–,–,–,–,0.17,0.18,35.4,15,8.88,5.2,40.3,–,–,–,–
CCCC[C@](C)(CNC(C)=O)Nc1nc(N)nc2cccnc12 [Example 61],–,–,–,44.4,44.4,–,0.02,0.02,–,42.1,44.4,–,–,–,–,–,–
CCCC[C@](C)(CNC(C)=O)Nc1nc(N)nc2c(C)ccnc12 [Example 62],–,–,–,44.4,44.4,–,–,–,–,–,44.4,–,–,0.91,19.2,1,> 50
"CCCC[C@@](C)(CO)Nc1nc(N)nc2cc(F)cnc12 [Example 64, (S)-2-((2-amino-7-fluoropyrido[3,2-d]pyrimidin-4-yl)amino)-2-methylhexan-1-ol]",–,0.79,–,–,–,–,3.2,3.1,–,37.9,–,1.55,–,–,–,–,–
"CCCC[C@](C)(CNC(C)=O)Nc1nc(N)nc2cc(Cl)cnc12 [Example 65, (R)—N-(2-((2-amino-7-chloropyrido[3,2-d]pyrimidin-4-yl)amino)-2-methylhexyl)acetamide]",–,50,–,44.4,44.4,–,0.09,0.11,–,> 50,44.4,–,–,–,–,–,–
"CCCC[C@](CO)(Nc1nc(N)nc2cccnc12)C(F)(F)F [Example 93, (R)-2-((2-aminopyrido[3,2-d]pyrimidin-4-yl)amino)-2-(trifluoromethyl)hexan-1-ol]",–,–,–,44.4,–,–,0.4,0.44,–,> 50,–,–,38.8,–,–,–,–
"CCCC[C@](C)(CNC(C)=O)Nc1nc(N)nc2cc(F)cnc12 [Example 101, (R)—N-(2-((2-amino-7-fluoropyrido[3,2-d]pyrimidin-4-yl)amino)-2-methylhexyl)acetamide]",–,50,–,44.4,44.4,–,0.11,0.1,–,> 50,44.4,–,–,–,–,–,–
"CCC[C@@H](CO)Nc1nc(N)nc2cc(F)c(F)cc12 [X, reference compound]",–,53.8,–,–,–,–,0.97,1.2,16.9,7.1,7.85,6.79,20.9,–,–,–,–
"CCCC[C@H](CO)Nc1nc(N)nc2ccsc12 [Y, reference compound]",–,1.42,–,–,–,–,13,11.2,2.31,> 50,0.19,0.18,0.95,–,–,–,–
